# Experimental data from ChEMBL document CHEMBL4622877, “Aspeterreurone A, a Cytotoxic Dihydrobenzofuran-Phenyl Acrylate Hybrid from the Deep-Sea-Derived Fungus Aspergillus terreus CC-S06-18” (J Nat Prod, 2020).
# Activity calls are given as the source filed them. The rule behind the calls is not given here.
# What was measured:
# BGC-823 = test: Cytotoxicity against human BGC823 cells after 72 hrs by CCK8 assay; format: functional, cell-based; details: for IC50: BGC-823, 72 h
# MGC-803 [1] = test: Induction of apoptosis in human MGC803 cells assessed as late apoptotic cells at 5 uM incubated for 48 hrs by Annexin V-FITC/propidium iodide staining-based flow cytometric analysis (reference value: 0.84%); format: functional
# MGC-803 [2] = test: Induction of apoptosis in human MGC803 cells assessed as early apoptotic cells at 2 uM incubated for 48 hrs by Annexin V-FITC/propidium iodide staining-based flow cytometric analysis (reference value: 1.83%); format: functional
# MGC-803 [3] = test: Induction of apoptosis in human MGC803 cells assessed as PARP cleavage at 20 uM incubated for 24 hrs by Western blot analysis; format: functional, cell-based
# MGC-803 [4] = test: Induction of cell cycle arrest in human MGC803 cells assessed as accumulation of cells at S phase at 5 uM incubated for 24 hrs propidium iodide-A staining-based flow cytometric analysis (reference value: 17%); format: functional
# MGC-803 [5] = test: Induction of cell cycle arrest in human MGC803 cells assessed as accumulation of cells at G2/M phase at 5 uM incubated for 24 hrs propidium iodide-A staining-based flow cytometric analysis (reference value: 31%); format: functional
# MGC-803 [6] = test: Induction of apoptosis in human MGC803 cells assessed as necrotic cells at 5 uM incubated for 48 hrs by Annexin V-FITC/propidium iodide staining-based flow cytometric analysis (reference value: 0.18%); format: functional
# MGC-803 [7] = test: Induction of cell cycle arrest in human MGC803 cells assessed as accumulation of cells at G1 phase at 5 uM incubated for 24 hrs propidium iodide-A staining-based flow cytometric analysis (reference value: 52%); format: functional
# MGC-803 [8] = test: Induction of apoptosis in human MGC803 cells assessed as early apoptotic cells at 5 uM incubated for 48 hrs by Annexin V-FITC/propidium iodide staining-based flow cytometric analysis (reference value: 1.83%); format: functional
# [9] = target: Signal transducer and activator of transcription 3 (Homo sapiens) (UniProt P40763); test: Inhibition of STAT3 phosphorylation in human MGC803 cells at 2 to 20 uM incubated for 24 hrs by Western blot analysis; format: cell-based; details: MGC-803
# MGC-803 [10] = test: Induction of cell cycle arrest in human MGC803 cells assessed as accumulation of cells at G1 phase at 10 uM incubated for 24 hrs propidium iodide-A staining-based flow cytometric analysis (reference value: 52%); format: functional
# MGC-803 [11] = test: Induction of cell cycle arrest in human MGC803 cells assessed as accumulation of cells at S phase at 10 uM incubated for 24 hrs propidium iodide-A staining-based flow cytometric analysis (reference value: 17%); format: functional
# GES1 = test: Cytotoxicity against human GES-1 cells after 72 hrs by CCK8 assay; format: cell-based; details: GES1, 72 h
# MGC-803 [12] = test: Induction of apoptosis in human MGC803 cells assessed as early apoptotic cells at 10 uM incubated for 48 hrs by Annexin V-FITC/propidium iodide staining-based flow cytometric analysis (reference value: 1.83%); format: functional
# MGC-803 [13] = test: Induction of cell cycle arrest in human MGC803 cells assessed as accumulation of cells at G1 phase at 20 uM incubated for 24 hrs propidium iodide-A staining-based flow cytometric analysis (reference value: 52%); format: functional
# MGC-803 [14] = test: Induction of apoptosis in human MGC803 cells assessed as late apoptotic cells at 2 uM incubated for 48 hrs by Annexin V-FITC/propidium iodide staining-based flow cytometric analysis (reference value: 0.84%); format: functional
# MGC-803 [15] = test: Induction of apoptosis in human MGC803 cells assessed as necrotic cells at 10 uM incubated for 48 hrs by Annexin V-FITC/propidium iodide staining-based flow cytometric analysis (reference value: 0.18%); format: functional
# MGC-803 [16] = test: Induction of apoptosis in human MGC803 cells assessed as late apoptotic cells at 10 uM incubated for 48 hrs by Annexin V-FITC/propidium iodide staining-based flow cytometric analysis (reference value: 0.84%); format: functional
# MGC-803 [17] = test: Induction of cell cycle arrest in human MGC803 cells assessed as accumulation of cells at G2/M phase at 2 uM incubated for 24 hrs propidium iodide-A staining-based flow cytometric analysis (reference value: 31%); format: functional
# MGC-803 [18] = test: Effect on total STAT3 expression in human MGC803 cells at 20 uM incubated for 24 hrs by Western blot analysis; format: cell-based; details: mgc-803, 24 h
# MGC-803 [19] = test: Induction of apoptosis in human MGC803 cells assessed as late apoptotic cells at 20 uM incubated for 48 hrs by Annexin V-FITC/propidium iodide staining-based flow cytometric analysis (reference value: 0.84%); format: functional
# MGC-803 [20] = test: Induction of apoptosis in human MGC803 cells assessed as early apoptotic cells at 20 uM incubated for 48 hrs by Annexin V-FITC/propidium iodide staining-based flow cytometric analysis (reference value: 1.83%); format: functional
# MGC-803 [21] = test: Induction of apoptosis in human MGC803 cells assessed as necrotic cells at 2 uM incubated for 48 hrs by Annexin V-FITC/propidium iodide staining-based flow cytometric analysis (reference value: 0.18%); format: functional
# MGC-803 [22] = test: Induction of cell cycle arrest in human MGC803 cells assessed as accumulation of cells at G1 phase at 2 uM incubated for 24 hrs propidium iodide-A staining-based flow cytometric analysis (reference value: 52%); format: functional
# MGC-803 [23] = test: Induction of cell cycle arrest in human MGC803 cells assessed as accumulation of cells at S phase at 20 uM incubated for 24 hrs propidium iodide-A staining-based flow cytometric analysis (reference value: 17%); format: functional
# HGC-27 = test: Cytotoxicity against human HGC27 cells after 72 hrs by CCK8 assay; format: functional, cell-based; details: for IC50: HGC-27, 72 h
# MGC-803 [24] = test: Induction of cell cycle arrest in human MGC803 cells assessed as accumulation of cells at S phase at 2 uM incubated for 24 hrs propidium iodide-A staining-based flow cytometric analysis (reference value: 17%); format: functional
# MGC-803 [25] = test: Induction of apoptosis in human MGC803 cells assessed as viable cells at 5 uM incubated for 48 hrs by Annexin V-FITC/propidium iodide staining-based flow cytometric analysis (reference value: 97.15%); format: functional; details: MGC-803, 48 h, read-out: Activity
# MGC-803 [26] = test: Induction of apoptosis in human MGC803 cells assessed as necrotic cells at 20 uM incubated for 48 hrs by Annexin V-FITC/propidium iodide staining-based flow cytometric analysis (reference value: 0.18%); format: functional
# MGC-803 [27] = test: Cytotoxicity against human MGC803 cells after 72 hrs by CCK8 assay; format: functional, cell-based; details: for IC50: MGC-803, 72 h
# MGC-803 [28] = test: Induction of apoptosis in human MGC803 cells assessed as viable cells at 10 uM incubated for 48 hrs by Annexin V-FITC/propidium iodide staining-based flow cytometric analysis (reference value: 97.15%); format: functional; details: MGC-803, 48 h, read-out: Activity
# MGC-803 [29] = test: Induction of apoptosis in human MGC803 cells assessed as viable cells at 20 uM incubated for 48 hrs by Annexin V-FITC/propidium iodide staining-based flow cytometric analysis (reference value: 97.15%); format: functional; details: MGC-803, 48 h, read-out: Activity
# MGC-803 [30] = test: Induction of cell cycle arrest in human MGC803 cells assessed as accumulation of cells at G2/M phase at 20 uM incubated for 24 hrs propidium iodide-A staining-based flow cytometric analysis (reference value: 31%); format: functional
# MGC-803 [31] = test: Induction of apoptosis in human MGC803 cells assessed as viable cells at 2 uM incubated for 48 hrs by Annexin V-FITC/propidium iodide staining-based flow cytometric analysis (reference value: 97.15%); format: functional; details: MGC-803, 48 h, read-out: Activity
# AGS = test: Cytotoxicity against human AGS cells after 72 hrs by CCK8 assay; format: functional, cell-based
# MGC-803 [32] = test: Induction of cell cycle arrest in human MGC803 cells assessed as accumulation of cells at G2/M phase at 10 uM incubated for 24 hrs propidium iodide-A staining-based flow cytometric analysis (reference value: 31%); format: functional
# Signal transducer and activator of transcription 3 (Homo sapiens), sequence (P40763 whole entry): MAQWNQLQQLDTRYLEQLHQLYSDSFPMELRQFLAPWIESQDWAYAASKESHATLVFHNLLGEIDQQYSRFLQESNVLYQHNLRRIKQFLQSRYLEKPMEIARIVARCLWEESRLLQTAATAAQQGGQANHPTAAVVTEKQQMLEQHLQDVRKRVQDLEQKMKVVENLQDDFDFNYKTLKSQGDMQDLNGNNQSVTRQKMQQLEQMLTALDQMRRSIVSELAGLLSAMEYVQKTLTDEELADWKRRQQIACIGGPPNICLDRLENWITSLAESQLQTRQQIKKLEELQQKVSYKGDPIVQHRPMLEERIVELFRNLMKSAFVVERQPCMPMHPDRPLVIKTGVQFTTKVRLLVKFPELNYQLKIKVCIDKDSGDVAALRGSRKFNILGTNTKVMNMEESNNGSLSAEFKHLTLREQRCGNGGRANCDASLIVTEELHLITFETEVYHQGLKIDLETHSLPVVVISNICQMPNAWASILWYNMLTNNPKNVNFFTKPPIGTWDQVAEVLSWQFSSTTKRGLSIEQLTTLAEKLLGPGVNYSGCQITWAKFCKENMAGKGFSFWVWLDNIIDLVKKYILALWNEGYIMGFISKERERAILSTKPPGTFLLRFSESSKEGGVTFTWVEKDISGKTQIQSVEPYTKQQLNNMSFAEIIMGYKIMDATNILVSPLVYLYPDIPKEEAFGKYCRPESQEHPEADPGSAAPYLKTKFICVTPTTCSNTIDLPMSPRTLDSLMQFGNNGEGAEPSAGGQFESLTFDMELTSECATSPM
smiles,measurement,setting,value
Cc1c2c(c(O)c3c1[C@H](C)[C@@H](C)O3)/C(=C/c1ccccc1)C(=O)O2,Activity,BGC-823,Dose-dependent effect
same,IC50,BGC-823,6.2 µM
same,Activity,MGC-803 [1],0.24%
same,Activity,MGC-803 [2],0.72%
same,Activity,MGC-803 [3],Active
same,Activity,MGC-803 [4],16%
same,Activity,MGC-803 [5],36%
same,Activity,MGC-803 [6],0.26%
same,Activity,MGC-803 [7],48%
same,Activity,MGC-803 [8],0.78%
same,inhibition,[9],Active
same,Activity,MGC-803 [10],49%
same,Activity,MGC-803 [11],18%
same,IC50,GES1,29 µM
same,Activity,MGC-803 [12],1.95%
same,Activity,MGC-803 [13],53%
same,Activity,MGC-803 [14],0.34%
same,Activity,MGC-803 [15],0.59%
same,Activity,MGC-803 [16],0.39%
same,Activity,MGC-803 [17],34%
same,Activity,MGC-803 [18],Toxic
same,Activity,MGC-803 [19],1.51%
same,Activity,MGC-803 [20],7.57%
same,Activity,MGC-803 [21],0.54%
same,Activity,MGC-803 [22],50%
same,Activity,MGC-803 [23],23%
same,Activity,HGC-27,Dose-dependent effect
same,IC50,HGC-27,3400 nM
same,Activity,MGC-803 [24],16%
same,viability at 5 µM,MGC-803 [25],98.7%
same,Activity,MGC-803 [26],1.55%
same,Activity,MGC-803 [27],Dose-dependent effect
same,IC50,MGC-803 [27],7 µM
same,viability at 10 µM,MGC-803 [28],97.1%
same,viability at 20 µM,MGC-803 [29],89.4%
same,Activity,MGC-803 [30],24%
same,viability at 2 µM,MGC-803 [31],98.4%
same,Activity,AGS,Dose-dependent effect
same,IC50,AGS,8.2 µM
same,Activity,MGC-803 [32],33%
CC(=O)O[C@H]1C(=O)[C@@]2(C)[C@H]([C@H](OC(=O)c3ccccc3)[C@]3(O)C[C@H](OC(=O)[C@H](O)[C@@H](NC(=O)c4ccccc4)c4ccccc4)C(C)=C1C3(C)C)[C@]1(OC(C)=O)CO[C@@H]1C[C@@H]2O [PACLITAXEL],IC50,BGC-823,0.0013 µM
same,IC50,GES1,0.0079 µM
same,IC50,HGC-27,8.4 nM
same,IC50,MGC-803 [27],0.0038 µM
same,IC50,AGS,0.053 µM
